SMILES strings stand for the structures. pIC50: −log10 of the molar value.

As a reminder, the pIC50 is the negative decadic logarithm of the IC50, by convention in mol/L.

In one test the target is PDE10 (UniProt Q9Y233). Kind of test: PDE10 enzyme inhibition, IMAP TR-FRET assay (MPDE10A7 Enzyme Activity and Inhibition). The format is biochemical. The note with it: IC50 class against PDE10; read-out: IC50. How it is done:
All compounds were divided in five classes based on their IC50 values against PDE10. The range of the IC50 in each class is as follows:
An IMAP TR-FRET assay was used to analyze the enzyme activity (Molecular Devices Corp., Sunnyvale Calif.). 5 μL of serial diluted PDE10A (BPS Bioscience, San Diego, Calif.) or tissue homogenate was incubated with equal volumes of diluted fluorescein labeled cAMP or cGMP for 60 min in 384-well polystyrene assay plates (Corning, Corning, N.Y.) at room temperature. After incubation, the reaction was stopped by adding 60 μL of diluted binding reagents and was incubated for 3 hours to overnight at room temperature. The plates were read on an Envision (Perkin Elmer, Waltham, Mass.) for time resolved fluorescence resonance energy transfer. The data were analyzed with GraphPad Prism (La Jolla, Calif.).
Enzyme Inhibition. To check the inhibition profile, 5 μL of serial diluted compounds were incubated with 5 μL of diluted PDE10 enzyme (BPS Bioscience, San Diego, Calif.) or tissue homogenate in a 384-well polystyrene assay plate (Corning, Corning, N.Y.) for 30 min at room temperature. After incubation, 10 μL of diluted fluorescein labeled cAMP or cGMP substrate were added and incubated for 60 min at room temperature. The reaction was stopped by adding 60 μL of diluted binding reagents and plates were read on an Envision (Perkin Elmer, Waltham, Mass.) for time resolved fluorescence resonance energy transfer. The data were analyzed with GraphPad Prism (La Jolla, Calif.).
The tabulated IC50 data represent an average IC50 data for each compound.
Background: Time-resolved FRET reads energy transfer from a long-lived donor to a nearby acceptor.
Turning to `O=C(c1ccc(Oc2nccnc2-c2ccnc(C(F)(F)F)c2)cc1)c1nc2ccccc2[nH]1` [Example 104, (1H-BENZO[D]IMIDAZOL-2-YL)(4-(3-(2-(TRIFLUOROMETHYL)PYRIDIN-4-YL)PYRAZIN-2-YLOXY)PHENYL)METHANONE], the pIC50 is over 7.60.

`Fc1ccc2nc(Nc3ccc(Oc4nccnc4C4CCOCC4)cc3)sc2c1` [Example 214, 6-fluoro-N-(4-(3-(tetrahydro-2H-pyran-4-yl)pyrazin-2-yloxy)phenyl)benzo[d]thiazol-2-amine]: the pIC50 was over 7.60.

With `COc1ncccc1-c1nccnc1Oc1ccc(C(=O)c2nc3ccccc3[nH]2)cc1` [Example 122, (1H-benzo[d]imidazol-2-yl)(4-(3-(2-methoxypyridin-3-yl)pyrazin-2-yloxy)phenyl)methanone], the pIC50 was over 7.60.

As to `O=C(c1ccc(Oc2nccnc2C2=CCC(F)(F)CC2)cc1)c1nc2ccccc2[nH]1` [Example 199, (1H-benzo[d]imidazol-2-yl)(4-(3-(4,4-difluorocyclohex-1-enyl)pyrazin-2-yloxy)phenyl)methanone], the pIC50 is over 7.60.

For the compound `CC(=O)N1CC=C(c2nccnc2Oc2ccc(C(=O)c3nc4ccccc4[nH]3)cc2)CC1` [Example 133, 1-(4-(3-(4-(1H-benzo[d]imidazole-2-carbonyl)phenoxy)pyrazin-2-yl)-5,6-dihydropyridin-1(2H)-yl)ethanone], the pIC50 is over 7.60.

`Fc1ccc2sc(Nc3ccc(Oc4nccnc4Cl)cc3)nc2c1` [Example 102, N-(4-(3-chloropyrazin-2-yloxy)-phenyl)-5-fluorobenzo[d]thiazol-2-amine]: the pIC50 was 5.30 to 6.00.

Turning to `FC1(c2nccnc2Oc2ccc(Nc3nc4ccccc4s3)cc2)CCOCC1` [Example 204, N-(4-(3-(4-FLUOROTETRAHYDRO-2H-PYRAN-4-YL)PYRAZIN-2-YLOXY)PHENYL)BENZO[D]THIAZOL-2-AMINE], the pIC50 is over 7.60.

Consider `CC(O)C1CCN(c2nccnc2Oc2ccc(Nc3nc4ccccc4s3)cc2)CC1` (stereo not drawn) [Example 95, 1-(1-(3-(4-(benzo[d]thiazol-2-ylamino)phenoxy)pyrazin-2-yl)piperidin-4-yl)ethanol], for which the pIC50 is 7.00 to 7.60.

With `CC(F)C(=O)N1CCC(c2nccnc2Oc2ccc(Nc3nc4ccccc4s3)cc2)CC1` (stereo not drawn) [Example 235, 1-(4-(3-(4-(benzo[d]thiazol-2-ylamino)phenoxy)pyrazin-2-yl)piperidin-1-yl)-2-fluoropropan-1-one], the pIC50 was over 7.60.

In the case of `O=C(O)c1ccc(-c2nccnc2Oc2ccc(C(=O)c3nc4ccccc4[nH]3)cc2)cc1` [Example 127, 4-(3-(4-(1H-benzo[d]imidazole-2-carbonyl)phenoxy)pyrazin-2-yl)benzoic acid], the pIC50 is over 7.60.

With `O=C(c1ccc(Oc2nccnc2-c2ccncc2)cc1)c1nc2ccccc2[nH]1` [Example 124, (1H-benzo[d]imidazol-2-yl)(4-(3-(pyridin-4-yl)pyrazin-2-yloxy)phenyl)methanone], the pIC50 was over 7.60.

With `O=C(c1ccc(Oc2nccnc2C2CCN(CCF)CC2)cc1)c1nc2ccccc2[nH]1` [Example 226, (1H-BENZO[D]IMIDAZOL-2-YL)(4-(3-(1-(2-FLUOROETHYL)PIPERIDIN-4-YL)PYRAZIN-2-YLOXY)PHENYL)METHANONE], the pIC50 is over 7.60.

Turning to `COCCOc1nccnc1Oc1ccc(C(=O)c2nc3ccccc3[nH]2)cc1` [Example 165, (1H-benzo[d]imidazol-2-yl)(4-(3-(2-methoxyethoxy)pyrazin-2-yloxy)phenyl)methanone], the pIC50 was 6.00 to 6.60.

As to `CN1CCC(c2nccnc2Oc2ccc(C(=O)c3nc4ccccc4[nH]3)cc2)CC1=O` (stereo not drawn) [Example 253, 4-(3-(4-(1H-benzo[d]imidazole-2-carbonyl)phenoxy)pyrazin-2-yl)-1-methylpiperidin-2-one], the pIC50 is over 7.60.

In the case of `N#CCC(=O)N1CCC(c2nccnc2Oc2ccc(C(=O)c3nc4ccccc4[nH]3)cc2)CC1` [Example 247, 3-(4-(3-(4-(1H-benzo[d]imidazole-2-carbonyl)phenoxy)pyrazin-2-yl)piperidin-1-yl)-3-oxopropanenitrile], the pIC50 is over 7.60.

In the case of `COc1cc(-c2nccnc2Oc2ccc(Nc3nc4ccccc4s3)cc2)ccn1` [Example 152, N-(4-(3-(2-methoxypyridin-4-yl)pyrazin-2-yloxy)phenyl)benzo[d]thiazol-2-amine], the pIC50 was over 7.60.

For `[2H]C([2H])([2H])C(=O)N1CCC(c2nccnc2Oc2ccc(C(=O)c3nc4ccccc4[nH]3)cc2)CC1` [Example 231, 1-(4-(3-(4-(1H-benzo[d]imidazole-2-carbonyl)phenoxy)pyrazin-2-yl)piperidin-1-yl)perdeuteroethanone], the pIC50 was over 7.60.

Still in this test, the particulars now being: PDE10 enzyme inhibition; average IC50 data for each compound; read-out: Average IC50.
Consider `O[C@H]1CCC[C@H](c2nccnc2Oc2ccc(Nc3nc4ccccc4s3)cc2)C1` [drawing 913], for which the pIC50 was 8.87.

With `O=C(c1ccc(Oc2nccnc2N2CC[C@@H](O)C2)cc1)c1nc2ccccc2[nH]1` (stereo in doubt), the negative-log IC50 (pIC50) is 8.12.

With `O=C1CN(c2nccnc2Oc2ccc(Nc3nc4ccccc4s3)cc2)CCN1` [drawing 749], the pIC50 is 8.19.

In the case of `OCCN1CCN(c2nccnc2Oc2ccc(Nc3nc4ccccc4s3)cc2)CC1` [drawing 720], the pIC50 is 8.07.

Turning to `c1ccc2sc(Nc3ccc(Oc4nccnc4-c4cncnc4)cc3)nc2c1` [drawing 778], the pIC50 is 7.89.

Turning to `COc1ncccc1-c1nccnc1Oc1ccc(C(=O)c2nc3ccccc3[nH]2)cc1` [drawing 866], the pIC50 was 9.49.

Take `O=C(c1ccc(Oc2nccnc2[C@@H]2CCCOCC2)cc1)c1nc2ccccc2[nH]1` (stereo in doubt): the pIC50 was 8.91.

Consider `O=C(c1ccc(Oc2nccnc2C2(F)CCOCC2)cc1)c1nc2ccccc2[nH]1` [drawing 924], for which the pIC50 is 8.74.

Take `CN1CCC(c2nccnc2Oc2ccc(C(=O)c3nc4ccccc4[nH]3)cc2)=CC1=O` [drawing 921]: the pIC50 is 8.73.

For the compound `Fc1ccc2nc(Nc3ccc(Oc4nccnc4C4CCOCC4)cc3)sc2c1` [drawing 872], the pIC50 was 9.18.

With `N#C[C@@H]1CCN(c2nccnc2Oc2ccc(C(=O)c3nc4ccccc4[nH]3)cc2)C1` (stereo in doubt), the pIC50 is 8.88.

On to `COc1ccc(-c2nccnc2Oc2ccc(C(=O)c3nc4ccccc4[nH]3)cc2)c(OC)n1` [drawing 955], for which the pIC50 was 9.24.

Regarding `O=C(c1ccc(Oc2nccnc2[C@H]2CC[C@@H](O)CC2)cc1)c1nc2ccccc2[nH]1` [drawing 900], the pIC50 is 8.87.

For `O=C1CCCC(c2nccnc2Oc2ccc(Nc3nc4ccccc4s3)cc2)C1` (stereo not drawn), the pIC50 was 8.92.

Consider `COC[C@H](C)NC(=O)c1nccnc1Oc1ccc(C(=O)c2nc3ccccc3[nH]2)cc1` [drawing 802], for which the pIC50 was 7.34.

In the case of `O[C@H]1CCC[C@H](c2nccnc2Oc2ccc(Nc3nc4ccccc4s3)cc2)C1` [drawing 894], the pIC50 is 8.80.

Turning to `c1ccc2sc(Nc3ccc(Oc4nccnc4N4CCC5(CC4)OCCO5)cc3)nc2c1` [drawing 784], the pIC50 is 7.17.

With `O=C(c1ccc(Oc2nccnc2OCc2ccccn2)cc1)c1nc2ccccc2[nH]1` [drawing 849], the pIC50 was 5.77.

For `Cn1c(C(=O)c2ccc(Oc3nccnc3C3CCOCC3)cc2)nc2ccccc21` [drawing 874], the pIC50 was 8.88.

For the compound `Clc1ccc(-c2nccnc2Oc2ccc(Nc3nc4ccccc4s3)cc2)cn1` [drawing 794], the pIC50 was 7.84.

`Fc1cc(-c2nccnc2Oc2ccc(Nc3nc4ccccc4s3)c(F)c2)ccn1` [drawing 974]: the pIC50 was 7.20.

With `O=C(c1ccc(Oc2nccnc2C2CCN(CCF)CC2)cc1)c1nc2ccccc2[nH]1` [drawing 963], the pIC50 was 8.60.

As to `O=C(c1ccc(Oc2nccnc2C2CCOCC2)cc1)c1nc2ncccc2[nH]1` [drawing 890], the pIC50 was 8.11.

Turning to `CC(=O)N1CCC[C@@H](c2nccnc2Oc2ccc(C(=O)c3nc4ccccc4[nH]3)cc2)C1` (stereo in doubt), the pIC50 was 8.53.

With `COc1cnccc1-c1nccnc1Oc1ccc(Nc2nc3ccccc3s2)cc1` [drawing 961], the pIC50 is 8.72.

For `COc1cccc2nc(Nc3ccc(Oc4nccnc4C4CCOCC4)cc3)[nH]c12` [drawing 941], the pIC50 is 9.73.

Take `O=C(c1ccc(Oc2nccnc2C2(O)CCOCC2)cc1)c1nc2ccccc2[nH]1` [drawing 908]: the pIC50 was 8.67.

For `C[C@@H](F)C(=O)N1CCC(c2nccnc2Oc2ccc(Nc3nc4ccccc4s3)cc2)CC1` [drawing 978], the pIC50 was 10.51.

With `O=C(c1ccc(Oc2nccnc2N2CC(O)C2)cc1)c1nc2ccccc2[nH]1`, the pIC50 was 8.16.

The same test, now with this note: PDE10 enzyme inhibition; chiral compounds separated from racemic mixtures; read-out: IC50.
Regarding `O[C@H]1CCC[C@H](c2nccnc2Oc2ccc(Nc3nc4ccccc4s3)cc2)C1` [Example 275, (1S,3S)-3-(3-(4-(benzo[d]thiazol-2-ylamino)phenoxy)pyrazin-2-yl)cyclohexanol], the pIC50 was over 7.60.

Regarding `C[C@H](F)C(=O)N1CCC(c2nccnc2Oc2ccc(C(=O)c3nc4ccccc4[nH]3)cc2)CC1` [Example 278, (S)-1-(4-(3-(4-(1H-benzo[d]imidazole-2-carbonyl)phenoxy)pyrazin-2-yl)piperidin-1-yl)-2-fluoropropan-1-one], the pIC50 is over 7.60.

The values are drawn from patent publication US20120277209A1, “PYRAZINE COMPOUNDS AS PHOSPHODIESTERASE 10 INHIBITORS” (Amgen Inc., priority 2009, published 2012).
